# Results: article PMC7247319, “The mitochondria-targeted peptide SS-31 binds lipid bilayers and modulates surface electrostatics as a key component of its mechanism of action” (The Journal of Biological Chemistry, 2020)
# Where a SMILES comes first, the peptide text is derived from it. [ ]: non-standard residue; d: D form. Dmt = Cc1cc(O)cc(C)c1C[C@H](N)C(=O)O
# Legend:
# Test in all cases: SS-31 binding isotherms by endogenous 2′,6′-Dmt fluorescence (peptide and lipid titrations)
# [1] = test system: LUVs containing 20 mol % TOCL in a POPC background; conditions: 20% TOCL/POPC LUVs, 20 mM HEPES-KOH pH 7.5, Scatchard and Langmuir fits of fluorescence isotherms
# Excerpt: (§1) The interaction of basic amphipathic peptides with negatively charged membranes depends on the electric field originating from the bilayer surface as well as specific electrostatic and hydrophobic interactions between the peptide and lipids (Fig. S2). The first objective of this study was to quantitatively evaluate the binding of SS-31 to model membranes with specific lipid composition. For spectroscopic analysis of SS-31 binding, we made use of the endogenous spectral properties of the 2′,6′-dimethyltyrosine (2′,6′-Dmt) side chain at the second position in the peptide. Our initial spectral characterization of SS-31 confirmed the feasibility of using endogenous peptide fluorescence to quantify peptide-membrane interactions (supporting Results A and B and Figs. S3 and S4). We therefore proceeded to measure the binding of SS-31 to large unilamellar vesicles (LUVs) containing anionic lipids in a host background of the zwitterionic lipid 1-palmitoyl-2-oleoyl-sn-glycero-3-phosphocholine (POPC, 16:0/18:1 PC). The anionic lipids included 1′,3′-bis[1,2-dioleoyl-sn-glycero-3-phospho]-glycerol (tetraoleoylcardiolipin (TOCL), all acyl chains 18:1), monolysocardiolipin (MLCL, all acyl chains 18:1), or 1-palmitoyl-2-oleoyl-sn-glycero-3-phosphoglycerol (POPG, 16:0/18:1 PG). Binding measurements were performed using two complementary approaches: (i) titration of fixed concentrations of LUVs with peptide and (ii) titration of fixed concentrations of peptide with LUVs (supporting Results C and Fig. S5). […]
# (§2) Figure 2. […] A–C, fluorescence-based measurements. […] Statistical differences within each data set were determined relative to TOCL-containing membranes: •, p < 0.05; ••, p < 0.01.
# (§3) To obtain equilibrium binding parameters n (the number of lipid molecules per peptide bound) and KD (the dissociation constant), we analyzed binding isotherm data by Scatchard analysis (Fig. 2C) and by fits of the data to Langmuir adsorption models (Equations S2 and S3 for peptide and lipid titrations, respectively). […]
# [2] = test system: LUVs containing 20 mol % MLCL in a POPC background; conditions: 20% MLCL/POPC LUVs, 20 mM HEPES-KOH pH 7.5, Scatchard and Langmuir fits of fluorescence isotherms
# Excerpt: as §1, §2, §3
# [3] = test system: LUVs containing 20 mol % POPG in a POPC background; conditions: 20% POPG/POPC LUVs, 20 mM HEPES-KOH pH 7.5, Scatchard and Langmuir fits of fluorescence isotherms
# Excerpt: as §1, §2, §3
smiles,measurement,setting,value
"Cc1cc(O)cc(C)c1C[C@H](NC(=O)[C@H](N)CCCNC(=N)N)C(=O)N[C@@H](CCCCN)C(=O)N[C@@H](Cc1ccccc1)C(N)=O [SS-31, D-Arg-2′6′-dimethyl-Tyr-Lys-Phe-NH2] (H-[dR][Dmt]KF-NH2)","n (number of lipid molecules per peptide bound), average lipid/peptide stoichiometry",[1],6.9
same,"n (number of lipid molecules per peptide bound), average lipid/peptide stoichiometry",[2],7.4
same,"n (number of lipid molecules per peptide bound), average lipid/peptide stoichiometry",[3],15.4
